Source: the supplement of paper PMC10307832

Columns and labels:
Experiment in all cases: relative viability (nuclei count vs DMSO), 5 days (fraction); higher = more cells survive
[1] = compound: COc1nc(N)nc2c1ncn2[C@@H]1O[C@H](CO)[C@@H](O)[C@@H]1O [Nelarabine] + NC(=O)Nc1cc(-c2cccc(F)c2)sc1C(=O)N[C@H]1CCCNC1 [AZD7762] (partner 0.2 µM)
In short: (§1)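 Lung cancer cell lines, seeded in 1536-well plates, were treated the following day by pin tool with a single drug or with five library-drug doses (not always all listed) in √10 steps on top of a fixed anchor-drug dose. Cells were fixed and nuclei stained in one step after 5 days, and nuclei were counted. Relative viability is the nuclei count for treated wells divided by that for vehicle wells, reported as medians of duplicate plates.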

[2] = compound: C=CCn1c(=O)c2cnc(Nc3ccc(N4CCN(C)CC4)cc3)nc2n1-c1cccc(C(C)(C)O)n1 [Adavosertib] + C[C@@H](Oc1cc(-c2cnn(C3CCNCC3)c2)cnc1N)c1c(Cl)ccc(F)c1Cl [Crizotinib] (partner 1 µM)
In short: as §1

[3] = compound: C=CCn1c(=O)c2cnc(Nc3ccc(N4CCN(C)CC4)cc3)nc2n1-c1cccc(C(C)(C)O)n1 [Adavosertib] + CC(C)C[C@H](NC(=O)[C@H](Cc1ccccc1)NC(=O)c1cnccn1)B(O)O [Bortezomib] (partner 0.002 µM)
In short: as §1

[4] = compound: COc1nc(N)nc2c1ncn2[C@@H]1O[C@H](CO)[C@@H](O)[C@@H]1O [Nelarabine] + CC(C)C[C@H](NC(=O)[C@H](Cc1ccccc1)NC(=O)c1cnccn1)B(O)O [Bortezomib] (partner 0.002 µM)
In short: as §1

Row | Cell Line | relative viability ([1]; first compound 0.01 µM) | relative viability ([1]; first compound 0.03162 µM) | relative viability ([1]; first compound 0.1 µM) | relative viability ([1]; first compound 0.3162 µM) | relative viability ([1]; first compound 1 µM) | relative viability ([2]; first compound 0.01 µM) | relative viability ([2]; first compound 0.03162 µM) | relative viability ([2]; first compound 0.1 µM) | relative viability ([2]; first compound 0.3162 µM) | relative viability ([3]; first compound 0.01 µM) | relative viability ([3]; first compound 0.03162 µM) | relative viability ([3]; first compound 0.1 µM) | relative viability ([3]; first compound 0.3162 µM) | relative viability ([4]; first compound 0.01 µM) | relative viability ([4]; first compound 0.03162 µM) | relative viability ([4]; first compound 0.1 µM) | relative viability ([4]; first compound 0.3162 µM) | relative viability ([4]; first compound 1 µM)
1 | NCI-H1395 | 0.386 | 0.419 | 0.388 | 0.406 | 0.39 |  |  |  |  |  |  |  |  |  |  |  |  | 
2 | LOU-NH91 | 0.868 | 0.69 | 0.78 | 0.732 | 0.69 | 0.709 | 0.712 | 0.788 | 0.726 | 0.484 | 0.502 | 0.502 | 0.489 | 0.447 | 0.519 | 0.553 | 0.474 | 0.513
3 | SW 1573 |  |  |  |  |  | 0.797 | 0.879 | 1.09 | 0.845 | 1.21 | 1.07 | 1.16 | 1.16 | 1.63 | 1.12 | 1.18 | 1.25 | 1.1
4 | NCI-H23 | 0.205 | 0.227 | 0.241 | 0.232 | 0.25 | 0.532 | 0.558 | 0.517 | 0.432 | 0.97 | 1.05 | 0.844 | 0.327 | 1.38 | 0.97 | 1.13 | 0.957 | 1.1
5 | NCI-H1993 | 0.845 | 0.438 | 0.642 | 0.841 | 0.692 | 0.919 | 0.804 | 0.874 | 0.95 | 0.94 | 0.962 | 1.09 | 1.11 | 1.25 | 1.21 | 1.27 | 1.13 | 1.04
6 | HARA | 0.426 | 0.284 | 0.307 | 0.441 | 0.373 | 1 | 1.06 | 1.04 | 0.354 | 0.981 | 1.17 | 1.13 | 0.938 | 1.19 | 1.08 | 1.16 | 1.21 | 1.02
7 | HCC-366 | 0.371 | 0.217 | 0.228 | 0.411 | 0.287 | 0.498 | 0.568 | 0.701 | 0.644 | 1.03 | 1.05 | 1.1 | 1.05 | 1.95 | 0.968 | 1.33 | 1.23 | 1.13
8 | COR-L 105 |  |  |  |  |  | 0.746 | 0.836 | 0.795 | 0.747 | 0.984 | 0.719 | 0.855 | 0.627 | 1.02 | 0.912 | 0.683 | 0.678 | 0.979
9 | HCC-44 | 1.01 | 0.951 | 1.05 | 0.999 | 0.955 | 0.827 | 0.856 | 0.946 | 0.949 | 0.889 | 0.95 | 0.89 | 1.04 | 1.05 | 0.845 | 0.866 | 0.924 | 0.924
10 | LXF-289 | 1.22 | 1.14 | 1.02 | 1.17 | 1 | 0.8 | 0.841 | 0.88 | 0.849 | 0.959 | 0.948 | 0.999 | 0.999 | 1.13 | 0.99 | 0.995 | 1 | 1.01
11 | EBC-1 |  |  |  |  |  | 0.206 | 0.192 | 0.206 | 0.175 | 0.719 | 0.653 | 0.562 | 0.493 | 0.559 | 0.525 | 0.548 | 0.55 | 0.549
12 | NCI-H1563 |  |  |  |  |  | 0.837 | 0.942 | 0.936 | 0.924 | 0.9 | 0.901 | 0.86 | 0.869 | 0.943 | 0.903 | 0.766 | 0.84 | 0.908
13 | NCI-H2023 |  |  |  |  |  | 0.717 | 0.681 | 0.573 | 0.551 | 0.94 | 0.937 | 0.682 | 0.437 | 1.28 | 1.08 | 0.864 | 1.04 | 0.934
14 | LK-2 | 0.408 |  | 0.289 | 0.498 | 0.309 | 0.278 | 0.249 | 0.188 | 0.224 |  |  |  |  |  |  |  |  | 
15 | IA-LM |  |  |  |  |  | 0.868 |  | 1.02 | 0.784 | 0.899 | 0.989 | 0.893 | 0.774 | 0.989 | 1.04 | 0.986 | 0.927 | 0.748
16 | NCI-H1299 |  |  |  |  |  | 0.929 | 0.936 | 0.96 | 0.49 | 1.02 | 1.03 | 1.09 | 1.02 | 1.08 | 1.09 | 1.05 | 1.06 | 1.01
17 | Calu-6 |  |  |  |  |  | 0.777 | 0.746 | 0.916 | 0.343 | 0.93 | 1.01 | 1.05 | 0.386 | 1.1 |  | 1.05 | 0.947 | 1.08
18 | NCI-H522 | 0.844 | 1.02 | 0.813 | 0.86 | 0.949 |  |  |  |  |  |  |  |  |  |  |  |  | 
19 | NCI-H1650 |  |  |  |  |  | 0.931 | 1.02 | 1.04 | 1.17 | 0.223 | 0.211 | 0.207 | 0.194 | 0.173 | 0.213 | 0.231 | 0.196 | 0.233
20 | NCI-H661 |  |  |  |  |  | 1.08 | 1.1 | 1.13 | 1.04 | 0.941 | 0.695 | 0.889 | 0.738 | 0.986 | 0.932 | 0.866 | 0.912 | 0.866
21 | NCI-H2228 |  |  |  |  |  | 0.391 | 0.458 | 0.615 | 0.3 | 0.875 | 0.941 | 0.818 | 0.358 | 1.45 | 1.52 |  | 1.35 | 1.03
22 | NCI-H1793 | 0.557 |  | 0.319 | 0.748 | 0.436 |  |  |  |  |  |  |  |  |  |  |  |  | 
23 | NCI-H358 | 0.605 | 0.395 | 0.386 | 0.501 | 0.586 | 0.542 | 0.559 | 0.507 | 0.309 |  |  |  |  |  |  |  |  | 
24 | NCI-H2342 | 0.508 | 0.5 | 0.439 | 0.555 | 0.464 |  |  |  |  |  |  |  |  |  |  |  |  | 
25 | A549 |  |  |  |  |  | 0.733 | 0.807 | 0.891 | 0.702 |  |  |  |  |  |  |  |  | 
26 | NCI-H1944 | 0.534 | 0.4 | 0.421 | 0.44 | 0.485 | 1.14 | 1.11 | 1.17 | 1.13 |  |  |  |  |  |  |  |  | 
